The values that follow come from US20080039522A1, “Composition Containing a Complex Comprising a Metal Ion and a Carboxylate Ligand Having Anti-Inflammatory Activity” (Medical Therapies Limited, priority 2004, published 2008).

Usually ED50 stands for the dose at which the effect has come halfway, by size or by number of responders.

Data set [1] deals with Sprague-Dawley rats. The experiment in a line: Small intestine ulceration after oral administration. The format is in vivo, rat. Particulars: rats fed, oral gavage, 24 h after dosing, IndoH 10 mg kg^−1, complexes 11 mg kg^−1, mean ± sem. The protocol:
The rats were orally administered (non-anaesthetized) the Test Samples or Test Compositions via oral gavage. The controls were dosed with CMC (2%) solution.
(§1) The total volume of the MCT or carbopol paste compositions administered per dose in the assessment of gastrointestinal ulceration was no more than 0.5 g.

The subject of data set [2] is Sprague-Dawley rats. The experiment in a line: Anti-inflammatory activity (rat paw oedema) after subcutaneous or intramuscular injection. The format is in vivo. As for the experimental part: (§2) In Vivo Anti-inflammatory Activity and Gastric Toxicity. Groups of four rats were used for all studies. All doses were calculated as equivalent concentrations of Indo. […] For subcutaneous and intramuscular administration, rats were injected with 125-200 μL volumes of the test compositions (IndoH or [Cu2(Indo)4(OH2)2] in MCT oil). The control cohort was injected with equivalent volumes of neat MCT. Subcutaneous injections were made in the lower dorsal surface and intramuscular injections were made in the right hind thigh muscle. Inflammation was induced 1 h after dosing by injection of the formulation by an injection of carrageenan (0.1 mL, 1% w/v in isotonic saline) into the plantar region of the hind paw.
(§3) Paw volume was measured prior to dosing and at 3 h after carrageenan injection by immersing the left hind paw (to the lateral malleus) into a vessel filled with water as described in Example 5. Immediately after paw volume measurements, 24 h-fasted animals were euthanised and the stomach was excised and opened by incision along the greater curvature.

Data set [3] deals with Sprague-Dawley rats. The experiment in a line: Inhibition of carrageenan-induced paw edema, oral administration. It is filed as in vivo, rat. Particulars: for percent inhibition in rat hind-paw diameter change, 3-hr / percent inhibition in rat hind-paw diameter change, 5-hr: oral, IndoH 10 mg kg^−1, complex 11 mg kg^−1, mean(sem); for percent inhibition in rat hind-paw diameter change, 3-hr: 3 h post carrageenan; for percent inhibition in rat hind-paw diameter change, 5-hr: 5 h post carrageenan. As for the experimental part:
Inhibition of Carrageenan-Induced Paw Edema: Rats were orally administered (non-anaesthetized) the Test Samples or Test Compositions via oral gavage. The control cohort was dosed solely with CMC (2%) solution. […] Exp. Ther. 1965, 150, 165-171). The thickness of the paw was measured at the ventral dorsal footpad using digital calipers prior to dosing and at 3 and 5 h after carrageenan injection. The change in the measured parameter (ΔP) for thickness of paw (Δmm) at n=3- and 5-hours after carrageenan injection is given by: ΔP=Pt=n-Pt=0 (I) The percent inhibition (% inhibition) at 3- or 5-hours in the measured parameter (P) due to the treatment is given as the difference between the % increase in the value of P in the control group and the treatment group at n=3- or 5-hours, with the % increase in the value of P given by: […]
For orientation: In the carrageenan paw model, swelling and tenderness develop within hours.

Data set [4] relates to Sprague-Dawley rats. The experiment in a line: Observation of the site of the subcutaneous injection. The format is in vivo, rat. Particulars: rat, in vivo, sc. The protocol:
as §2

Data set [5] relates to Sprague-Dawley rats. The experiment in a line: Gastric toxicity after subcutaneous or intramuscular injection. Particulars: rat, in vivo, 4 h. As for the experimental part: as §2, §3
Data set [6] deals with Sprague-Dawley rats. The experiment in a line: Anti-inflammatory activity (rat paw oedema) of topical creams. Particulars: topical emulsifying cream. It is filed as in vivo. The protocol:
All rat experiments were performed as outlined in Example 7, except for the following changes. In Vivo Anti-inflammatory Activity and Gastric Toxicity. For topical administration, rats were treated with test compositions containing [Cu2(Indo)4(OH2)2] (“CuIndo”), [Zn(Indo)2(OH2)2] (“ZnIndo”), IndoH, or an equivalent Indo and Cu dose of a physical mixture of [Cu2(OAc)4(OH2)2] and IndoH thoroughly mixed in an emulsifying cream (see below). An amount of 0.2 g of the composition was applied to the right hind paw of each animal and gently massaged in for 1 minute at three-hourly intervals. Inflammation was induced at the final topical application with an injection of carrageenan (0.1 mL, 1% w/v in isotonic saline) into the plantar region of the hind paw. The composition for topical application was a composition comprising 0.5-2% w/w of Indo delivered as [Cu2(Indo)4(OH2)2] (“CuIndo”), [Zn(Indo)2(OH2)2] (“ZuIndo”), IndoH or an equivalent Indo and Cu dose of a physical mixture of [Cu2(OAc)4(OH2)2] and IndoH in an emulsifying cream, the emulsifying cream consisting of: […]

Data set [7] has as its system Sprague-Dawley rats. The experiment in a line: Small intestinal toxicity of topical creams. Particulars: rat, in vivo. The protocol: In Vivo Small Intestinal Toxicity.
All rat experiments were performed as outlined in Example 7, except for the following changes.
In Vivo Anti-inflammatory Activity and Gastric Toxicity. For topical administration, rats were treated with test compositions containing [Cu2(Indo)4(OH2)2] (“CuIndo”), [Zn(Indo)2(OH2)2] (“ZnIndo”), IndoH, or an equivalent Indo and Cu dose of a physical mixture of [Cu2(OAc)4(OH2)2] and IndoH thoroughly mixed in an emulsifying cream (see below). An amount of 0.2 g of the composition was applied to the right hind paw of each animal and gently massaged in for 1 minute at three-hourly intervals. Inflammation was induced at the final topical application with an injection of carrageenan (0.1 mL, 1% w/v in isotonic saline) into the plantar region of the hind paw.

In data set [8] the test system is Sprague-Dawley rats. The experiment in a line: Acute gastric ulceration after oral administration. The format is in vivo, rat. Particulars: for gastric ulceration: 10 mg kg^−1 dose of Indo. The protocol:
Gastrointestinal Ulceration: To assess gastric damage, rats (n=4 per group) were fasted overnight with free access to water prior to the oral administration (non-anaesthetized) of the Test Samples or Test Compositions via oral gavage. The controls were dosed with CMC (2%) solution. Three hours after dosing, the rats were euthanised and the stomach was excised and opened by incision along the greater curvature. The stomach was rinsed, submerged in 10% formaldehyde for 1 h and examined to determine the extent of macroscopic gastric damage.
as §1
In order to illustrate the adverse effects of decomposition of the copper complex in the formulation, the gastric toxicity of IndoH, Cu-acetate, a physical mixture of Cu-acetate and IndoH and [Cu2(Indo)4(DMF)2] were tested at equivalent doses of Indo (10 mg kg^−1) and/or Cu in the MCT paste or a 2% (w/v) aqueous solution of carboxymethylcellulose (CMC). The MCT paste formulations were prepared as described in Example 3 but using IndoH, Cu-acetate, a physical mixture of Cu-acetate and IndoH, or [Cu2(Indo)4(DMF)2] instead of [Cu2(Indo)4(OH2)2]. The gastric toxicity was tested as described above. The results of these experiments are illustrated in FIG. 3.
In further experiments designed to test the toxicity of solutions of the Cu complex, the [Cu2(Indo)4(DMF)2] complex was dissolved in DMF and gastric toxicities were assessed. […] Similar results would be expected using other complexes, including [Cu2(Indo)4(OH2)2], in a non-colloidal solution.

SMILES strings stand for the structures. Several values for one entry are separate records, joined by “and”; a condition that tells them apart may be missing. Equal values may be shown once.

On to `COc1ccc2c(c1)c(CC(=O)O)c(C)n2C(=O)c1ccc(Cl)cc1` [IndoH, 1-(4-chlorobenzoyl)-5-methoxy-2-methyl-1H-indole-3-acetic acid], for which the “Small intestine ulceration (mm^2)” value in the data set with Sprague-Dawley rats [1] (listed as Sample I) is listed as 177.0±4.4 mm^2. For the same compound, the Percent inhibition amounted to 38.7% with Sprague-Dawley rats [2] (intramuscular, fasting rats, 5 mg/kg equivalent dose of Indo); 49.4% in the data set on Sprague-Dawley rats [2] (intramuscular, fasting rats, 10 mg/kg equivalent dose of Indo); 34% in the data set on Sprague-Dawley rats [2] (subcutaneous, 7.5 mg/kg of Indo, non-fasting). The results for the ED50 in the data set with Sprague-Dawley rats [3] (delivered in CMC) and in the data set with Sprague-Dawley rats [3] (delivered in MCT paste) were 2.8 ± 1.7 mg/kg and 1 mg/kg, respectively. Besides, the “percent inhibition in rat hind-paw diameter change, 3-hr” value in the data set on Sprague-Dawley rats [3] is reported as 21(8) %; in the data set with Sprague-Dawley rats [3] (listed as Indomethacin) it was 21(8)%. For the same compound, the results for the “percent inhibition in rat hind-paw diameter change, 5-hr” value in the data set with Sprague-Dawley rats [3] and in the data set with Sprague-Dawley rats [3] (listed as Indomethacin) were 25(6) % and 25(6)%, respectively. In addition, the “adverse effect at the site of the injection” value in the data set on Sprague-Dawley rats [4] is listed as “None of the rats exhibited soreness, swelling, redness or any other adverse effect”. For the same compound, the “Gastric ulcers (mm^2)” value was 1, 0, 1, 2 mm^2 in the data set on Sprague-Dawley rats [5] (5 mg/kg) and 12, 3, 8, 20 mm^2 in the data set on Sprague-Dawley rats [5] (10 mg/kg). Moreover, the “Efficacy (% inhib)” value in the data set on Sprague-Dawley rats [6] (conc. 0.5 % equiv of Indo) was determined as 18.6 % inhib; with Sprague-Dawley rats [6] (conc. 0.75 % equiv of Indo), 60.8 % inhib; in the data set with Sprague-Dawley rats [6] (conc. 1 % equiv of Indo) it was 35 % inhib; in the data set on Sprague-Dawley rats [6] (conc. 2 % equiv of Indo), 42 % inhib. The intestinal bleeding result in the data set on Sprague-Dawley rats [7] is on record as “^bOvert intestinal bleeding”.

As for `COc1ccc2c(c1)c(CC(=O)[O-])c(C)n2C(=O)c1ccc(Cl)cc1.COc1ccc2c(c1)c(CC(=O)[O-])c(C)n2C(=O)c1ccc(Cl)cc1.O.O.[Zn+2]` [ZnIndo, [Zn(Indo)2(OH2)2]], the “Efficacy (% inhib)” value was determined as 29 % inhib in the data set with Sprague-Dawley rats [6] (conc. 0.5 % equiv of Indo) and 41 % inhib with Sprague-Dawley rats [6] (conc. 1 % equiv of Indo).

Turning to `CN(C)C=O.CN(C)C=O.COc1ccc2c(c1)c(CC(=O)[O-])c(C)n2C(=O)c1ccc(Cl)cc1.COc1ccc2c(c1)c(CC(=O)[O-])c(C)n2C(=O)c1ccc(Cl)cc1.COc1ccc2c(c1)c(CC(=O)[O-])c(C)n2C(=O)c1ccc(Cl)cc1.COc1ccc2c(c1)c(CC(=O)[O-])c(C)n2C(=O)c1ccc(Cl)cc1.[Cu+2].[Cu+2]` [[Cu2(Indo)4(DMF)2], bis(N,N-dimethylformamide)tetrakis-μ-(O,O′-Indo)dicopper(II)], the “Small intestine ulceration (mm^2)” value in the data set on Sprague-Dawley rats [1] (listed as Sample M) is given as 8.7±2.9 mm^2. In addition, the results for the gastric ulceration in the data set on Sprague-Dawley rats [8] (complex dissolved in DMF alone) and with Sprague-Dawley rats [8] (complex in DMF containing 2% CMC) were more than 200 mm^2 and 100 mm^2, respectively. In the data set with Sprague-Dawley rats [8] (oral, equivalent doses of Indo (10 mg kg^−1) and/or Cu, FIG. 3), the “gastric damage in 0.5 mL MCT paste compared with 0.5 mL of 2% (w/v) CMC solution” value was “less GI toxicity for the MCT formulation compared to the CMC formulation”. In the data set on Sprague-Dawley rats [8] (oral, equivalent doses of Indo (10 mg kg^−1) and/or Cu, [Cu2(Indo)4(DMF)2] in MCT paste, Cu-acetate in CMC solution or MCT paste, FIG. 3), the “gastric ulcerations compared to the control” value is given as “no significant gastric ulcerations”. Besides, in the data set with Sprague-Dawley rats [8] (rats fasted overnight, oral gavage, 3 h after dosing, IndoH 10 mg kg^−1, complexes 11 mg kg^−1, mean ± sem, listed as Sample M), the “Gastric ulceration (mm^2)” value was 49±7 mm^2 and 49.0±6.7 mm^2.
